Reference: US20240109880A1 (Insilico Medicine IP Limited, priority 2021, published 2024)
Blank lines part the entries; values can stand above or below the molecule they belong to.

Key:
KAT6A = KAT6A (Homo sapiens (Human), UniProt Q92794); assay: KAT6A Biochemical Assay (radiometric 384-well, [3H]-Ac-CoA, biotinylated H4(1-30) peptide); conditions: 5 nM KAT6A enzyme solution (2×), 60 min reaction at room temperature
Description: Inhibition of KAT6A enzymatic activity by test compounds was determined using a radiometric 384-well format assay. A 10-point serial dilution of the test compounds were conducted in DMSO and then a volume of 200 nL was transferred into 384-well assay plate by Echo (Labcyte). 10 μL of 2× enzyme solution (5 nM KAT6A (Active Motif) in assay buffer (50 mM Tris-HCl pH 8.0, 50 mM KCl, 0.1 mM EDTA, 5% glycerol, 1 mM DTT)) was dispensed into assay plate except for low control wells, in which 10 μL of assay buffer was transferred. The plate was incubated at room temperature for 15 min before addition of 10 μL of 2×[^3H]-acetyl coenzyme A (Ac-CoA) and substrate peptide mix solution (500 nM (KAT6A) [^3H]-Ac-CoA (PerkinElmer) and 800 nM (KAT6A) biotinylated H4(1-30) peptide (GL Biochem) in assay buffer) to each well to start reaction. The plate was incubated at room temperature for 60 min (KAT6A), and then the reaction was stopped by adding 10 μL of stop solution (cold Ac-CoA (Cayman) in 1× assay buffer). 25 μL of reaction in each well was transferred to Flashplate (PerkinElmer) and incubated for another 1 hour at room temperature. The plate was read on Microbeta and the inhibition percentage of each compound treated well was calculated based on the equation in h %=(Max−sample)/(Max−Min)*100 where Max is signal from high control wells with enzyme, and Min is signal from low control wells with assay buffer only. The in h % data were further fit in XL-Fit to obtain IC50 values using a 4-parameter logistic (4PL) sigmoidal curve model.

[1] = Permeability in Caco-2 Assay; type: in vitro ADME; conditions: human, pH 7.4, 2 hours; for efflux ratio at 2 h, 2 μM: Caco-2, 2.00 μM bi-directionally; for Papp A→B at 2 h, 2 μM: Caco-2, 2.00 μM, pH 7.40
Description: Permeability of test compounds was determined in Caco-2 Assay. Caco-2 cells purchased from ATCC were seeded onto […] (PET) in 96-well Corning Insert plates at 1×10^5 cells/cm2, and refreshed medium every 4-5 days until to the 21st to 28th day for confluent cell monolayer formation. The transport buffer in the study was HBSS with 10.0 mM HEPES at pH 7.40±0.05. Test compound was tested at 2.00 μM bi-directionally in duplicate. Digoxin was tested at 10.0 μM bi-directionally in duplicate, while nadolol and metoprolol were tested at 2.00 μM in A to B direction in duplicate. Final DMSO concentration was adjusted to less than 1%. The plate was incubated for 2 hours in CO2 incubator at 37±1° C., with 5% CO2 at saturated humidity without shaking. And all samples after mixed with acetonitrile containing internal standard were centrifuged at 3200×g for 10 min. For nadolol and metoprolol, 200 μL supernatant solution was diluted with 600 μL ultra-pure water for LC-MS/MS analysis. For digoxin and test compounds, 200 μL supernatant solution was diluted with 200 μL ultra-pure water for LC-MS/MS analysis. Concentrations of test and control compounds in starting solution, donor solution, and receiver solution were quantified by LC-MS/MS methodologies, using peak area ratio of analyte/internal standard. After transport assay, lucifer yellow rejection assay was applied to determine the Caco-2 cell monolayer integrity.

Sequence of KAT6A (Q92794 whole entry): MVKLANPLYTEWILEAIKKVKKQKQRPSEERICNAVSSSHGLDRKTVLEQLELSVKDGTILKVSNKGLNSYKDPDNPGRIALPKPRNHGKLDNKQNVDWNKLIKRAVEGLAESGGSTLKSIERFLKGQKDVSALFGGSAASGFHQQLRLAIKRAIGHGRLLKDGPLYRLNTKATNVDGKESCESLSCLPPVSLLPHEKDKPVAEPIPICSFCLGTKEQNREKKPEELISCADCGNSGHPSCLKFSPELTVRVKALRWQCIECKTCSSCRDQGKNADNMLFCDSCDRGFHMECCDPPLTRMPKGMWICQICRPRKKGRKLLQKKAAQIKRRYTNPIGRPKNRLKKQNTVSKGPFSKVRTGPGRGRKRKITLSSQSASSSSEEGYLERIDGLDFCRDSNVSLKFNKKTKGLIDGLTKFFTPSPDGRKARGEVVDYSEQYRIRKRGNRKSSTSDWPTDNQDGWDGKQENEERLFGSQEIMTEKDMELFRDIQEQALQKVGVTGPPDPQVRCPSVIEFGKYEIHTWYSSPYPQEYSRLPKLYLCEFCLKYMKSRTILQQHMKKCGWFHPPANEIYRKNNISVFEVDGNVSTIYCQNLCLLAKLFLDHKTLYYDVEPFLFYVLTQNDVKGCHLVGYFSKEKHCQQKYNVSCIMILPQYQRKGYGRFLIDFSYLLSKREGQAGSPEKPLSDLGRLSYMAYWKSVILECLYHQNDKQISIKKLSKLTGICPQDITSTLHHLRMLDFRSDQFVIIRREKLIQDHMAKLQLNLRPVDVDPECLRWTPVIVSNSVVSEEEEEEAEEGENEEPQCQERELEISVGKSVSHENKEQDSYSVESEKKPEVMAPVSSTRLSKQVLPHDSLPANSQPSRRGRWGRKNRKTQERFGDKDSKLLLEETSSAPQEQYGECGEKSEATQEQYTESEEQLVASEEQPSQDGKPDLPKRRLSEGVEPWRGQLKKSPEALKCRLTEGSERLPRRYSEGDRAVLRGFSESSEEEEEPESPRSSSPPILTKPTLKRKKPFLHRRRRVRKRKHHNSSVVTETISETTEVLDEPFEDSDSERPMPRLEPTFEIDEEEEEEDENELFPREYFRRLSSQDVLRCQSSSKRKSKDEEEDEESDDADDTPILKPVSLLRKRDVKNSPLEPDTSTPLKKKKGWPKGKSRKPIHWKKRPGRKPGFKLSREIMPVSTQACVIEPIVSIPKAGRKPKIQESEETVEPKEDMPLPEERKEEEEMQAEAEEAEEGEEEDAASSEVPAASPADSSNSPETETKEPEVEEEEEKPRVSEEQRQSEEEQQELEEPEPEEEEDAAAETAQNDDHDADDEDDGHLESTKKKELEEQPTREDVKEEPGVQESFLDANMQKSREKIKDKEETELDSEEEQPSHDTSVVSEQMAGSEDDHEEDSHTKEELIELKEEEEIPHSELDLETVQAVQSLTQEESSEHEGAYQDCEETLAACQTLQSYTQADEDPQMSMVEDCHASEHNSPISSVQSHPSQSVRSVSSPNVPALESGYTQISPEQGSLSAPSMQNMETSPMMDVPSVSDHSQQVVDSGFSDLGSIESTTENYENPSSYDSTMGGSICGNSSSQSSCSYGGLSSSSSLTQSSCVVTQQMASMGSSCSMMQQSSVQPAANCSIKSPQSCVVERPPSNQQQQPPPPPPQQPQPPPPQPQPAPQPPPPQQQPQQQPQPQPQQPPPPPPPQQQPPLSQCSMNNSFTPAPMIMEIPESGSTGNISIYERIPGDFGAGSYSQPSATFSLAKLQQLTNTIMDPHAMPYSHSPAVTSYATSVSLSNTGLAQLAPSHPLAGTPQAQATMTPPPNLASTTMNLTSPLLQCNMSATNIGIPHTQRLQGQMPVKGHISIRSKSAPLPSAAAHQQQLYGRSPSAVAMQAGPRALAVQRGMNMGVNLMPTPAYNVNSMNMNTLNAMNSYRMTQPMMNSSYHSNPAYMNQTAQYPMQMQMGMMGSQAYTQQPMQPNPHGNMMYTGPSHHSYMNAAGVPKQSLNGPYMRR

Structure (SMILES): COc1cccc(OC)c1S(=O)(=O)Nc1noc2cc(Oc3ccccn3)cc(OC)c12 [Compound 9, 2,6-dimethoxy-N-(4-methoxy-6-(pyridin-2-yloxy)benzo[d]isoxazol-3-yl)benzenesulfonamide]
IC50 (KAT6A): 10 to 100 nM
efflux ratio at 2 h, 2 μM [1]: 3.66
Papp A→B at 2 h, 2 μM [1]: 11.8 ×10⁻⁶ cm/s

Structure (SMILES): COc1cccc(OC)c1S(=O)(=O)Nc1noc2cc(Cn3cccn3)c3c(c12)OCCCC3 [Compound 19]
IC50 (KAT6A): < 10 nM
efflux ratio at 2 h, 2 μM [1]: 13.2
Papp A→B at 2 h, 2 μM [1]: 3.47 ×10⁻⁶ cm/s

Structure (SMILES): COc1cccc(OC)c1S(=O)(=O)Nc1noc2cc(Oc3ccccn3)cc(OC(F)F)c12 [Compound 22, N-(4-(difluoromethoxy)-6-(pyridin-2-yloxy)benzo[d]isoxazol-3-yl)-2,6-dimethoxybenzenesulfonamide]
IC50 (KAT6A): 10 to 100 nM
efflux ratio at 2 h, 2 μM [1]: 6.87
Papp A→B at 2 h, 2 μM [1]: 3.45 ×10⁻⁶ cm/s

Structure (SMILES): COc1cccc(OC)c1S(=O)(=O)Nc1noc2cc(Oc3ccccn3)c3c(c12)OCC3 [Compound 23, 2,6-dimethoxy-N-(4-(pyridin-2-yloxy)-2,3-dihydrobenzofuro [7,6-d]isoxazol-8-yl)benzenesulfonamide]
IC50 (KAT6A): < 10 nM
efflux ratio at 2 h, 2 μM [1]: 14.2
Papp A→B at 2 h, 2 μM [1]: 1.3 ×10⁻⁶ cm/s

Structure (SMILES): COc1ccnc(OC)c1S(=O)(=O)Nc1noc2cc(Oc3ccccn3)c3c(c12)OCCC3 [Compound 28, 2,4-dimethoxy-N-(5-(pyridin-2-yloxy)-3,4-dihydro-2H-chromeno[8,7-d]isoxazol-9-yl)pyridine-3-sulfonamide]
IC50 (KAT6A): 10 to 100 nM
efflux ratio at 2 h, 2 μM [1]: 9.58
Papp A→B at 2 h, 2 μM [1]: 2.38 ×10⁻⁶ cm/s

Structure (SMILES): COc1cc(C)nc(OC)c1S(=O)(=O)Nc1noc2cc(Cn3cccn3)c(F)c(OCF)c12 [Compound 43, N-(6-((1H-pyrazol-1-yl)methyl)-5-fluoro-4-(fluoromethoxy)benzo[d]isoxazol-3-yl)-2,4-dimethoxy-6-methylpyridine-3-sulfonamide]
IC50 (KAT6A): 10 to 100 nM

Structure (SMILES): COc1cc(C)nc(OC)c1S(=O)(=O)Nc1noc2cc(Cn3cccn3)c(F)c(OC(F)F)c12 [Compound 44, N-(6-((1H-pyrazol-1-yl)methyl)-4-(difluoromethoxy)-5-fluorobenzo[d]isoxazol-3-yl)-2,4-dimethoxy-6-methylpyridine-3-sulfonamide]
IC50 (KAT6A): 10 to 100 nM

Structure (SMILES): COc1cccc(OC)c1S(=O)(=O)Nc1noc2cc(Cc3ccccn3)cc(OCF)c12 [Compound 45, N-(4-(fluoromethoxy)-6-(pyridin-2-ylmethyl)benzo[d]isoxazol-3-yl)-2,6-dimethoxybenzenesulfonamide]
IC50 (KAT6A): 10 to 100 nM

Structure (SMILES): COc1ccnc(OC)c1S(=O)(=O)Nc1noc2cc(Cn3cccn3)cc(OCF)c12 [Compound 48, N-(6-((1H-pyrazol-1-yl)methyl)-4-(fluoromethoxy)benzo[d]isoxazol-3-yl)-2,4-dimethoxypyridine-3-sulfonamide]
IC50 (KAT6A): < 10 nM

Structure (SMILES): COc1cc(C2CC2)nc(OC)c1S(=O)(=O)Nc1noc2cc(Cn3cccn3)cc(OCF)c12 [Compound 49, N-(6-((1H-pyrazol-1-yl)methyl)-4-(fluoromethoxy)benzo [d]isoxazol-3-yl)-6-cyclopropyl-2,4-dimethoxypyridine-3-sulfonamide]
IC50 (KAT6A): 10 to 100 nM

Structure (SMILES): COc1cc(C(F)F)nc(OC)c1S(=O)(=O)Nc1noc2cc(Cn3cccn3)cc(OCF)c12 [Compound 50, N-(6-((1H-pyrazol-1-yl)methyl)-4-(fluoromethoxy)benzo[d]isoxazol-3-yl)-6-(difluoromethyl)-2,4-dimethoxypyridine-3-sulfonamide]
IC50 (KAT6A): 10 to 1000 nM

Second part, the molecule after the results:

IC50 (KAT6A): < 10 nM
Structure (SMILES): COc1cc(C(F)(F)F)nc(OC)c1S(=O)(=O)Nc1noc2cc(Cn3cccn3)cc(OCF)c12 [Compound 51, N-(6-((1H-pyrazol-1-yl)methyl)-4-(fluoromethoxy)benzo[d]isoxazol-3-yl)-2,4-dimethoxy-6-(trifluoromethyl)pyridine-3-sulfonamide]

IC50 (KAT6A): 10 to 100 nM
Structure (SMILES): CCc1cc(OC)c(S(=O)(=O)Nc2noc3cc(Cn4cccn4)cc(OCF)c23)c(OC)n1 [Compound 52, N-(6-((1H-pyrazol-1-yl)methyl)-4-(fluoromethoxy)benzo[d]isoxazol-3-yl)-6-ethyl-2,4-dimethoxypyridine-3-sulfonamide]

IC50 (KAT6A): 10 to 100 nM
Structure (SMILES): CC#Cc1cc(OC)c(S(=O)(=O)Nc2noc3cc(Cn4cccn4)cc(OCF)c23)c(OC)n1 [Compound 53, N-(6-((1H-pyrazol-1-yl)methyl)-4-(fluoromethoxy)benzo[d]isoxazol-3-yl)-2,4-dimethoxy-6-(prop-1-yn-1-yl)pyridine-3-sulfonamide]

IC50 (KAT6A): < 10 nM
Structure (SMILES): C#Cc1cc(OC)c(S(=O)(=O)Nc2noc3cc(Cn4cccn4)cc(OCF)c23)c(OC)n1 [Compound 54, N-(6-((1H-pyrazol-1-yl)methyl)-4-(fluoromethoxy)benzo[d]isoxazol-3-yl)-6-ethynyl-2,4-dimethoxypyridine-3-sulfonamide]

IC50 (KAT6A): 10 to 100 nM
efflux ratio at 2 h, 2 μM [1]: 12.3
Papp A→B at 2 h, 2 μM [1]: 1.46 ×10⁻⁶ cm/s
Structure (SMILES): COc1cc(C)nc(OC)c1S(=O)(=O)Nc1noc2cc(Oc3nccs3)cc(OCF)c12 [Compound 55, N-(4-(fluoromethoxy)-6-(thiazol-2-yloxy)benzo[d]isoxazol-3-yl)-2,4-dimethoxy-6-methylpyridine-3-sulfonamide]

IC50 (KAT6A): < 10 nM
efflux ratio at 2 h, 2 μM [1]: 2.84
Papp A→B at 2 h, 2 μM [1]: 5.28 ×10⁻⁶ cm/s
Structure (SMILES): COc1ccccc1S(=O)(=O)Nc1noc2cc(Oc3nccs3)cc(OCF)c12 [Compound 56, N-(4-(fluoromethoxy)-6-(thiazol-2-yloxy)benzo[d]isoxazol-3-yl)-2-methoxybenzenesulfonamide]

IC50 (KAT6A): < 10 nM
Papp A→B at 2 h, 2 μM [1]: 3.38 ×10⁻⁶ cm/s
Structure (SMILES): COc1cc(C)nc(OC)c1S(=O)(=O)Nc1noc2cc(Oc3nccs3)cc(OC)c12 [Compound 57, 2,4-dimethoxy-N-(4-methoxy-6-(thiazol-2-yloxy)benzo[d]isoxazol-3-yl)-6-methylpyridine-3-sulfonamide]

IC50 (KAT6A): < 10 nM
efflux ratio at 2 h, 2 μM [1]: 6.17
Papp A→B at 2 h, 2 μM [1]: 5.14 ×10⁻⁶ cm/s
Structure (SMILES): COc1cccc(OC)c1S(=O)(=O)Nc1noc2cc(Oc3nccs3)cc(OCF)c12 [Compound 58]

IC50 (KAT6A): < 10 nM
efflux ratio at 2 h, 2 μM [1]: 4.53
Papp A→B at 2 h, 2 μM [1]: 6.2 ×10⁻⁶ cm/s
Structure (SMILES): COc1cccc(OC)c1S(=O)(=O)Nc1noc2cc(Oc3nccs3)cc(OC)c12 [Compound 59, 2,6-dimethoxy-N-(4-methoxy-6-(thiazol-2-yloxy)benzo[d]isoxazol-3-yl)benzenesulfonamide]

IC50 (KAT6A): < 10 nM
efflux ratio at 2 h, 2 μM [1]: 1.33
Papp A→B at 2 h, 2 μM [1]: 13.7 ×10⁻⁶ cm/s
Structure (SMILES): COc1ccccc1S(=O)(=O)Nc1noc2cc(Oc3nccs3)cc(OC)c12 [Compound 60, 2-methoxy-N-(4-methoxy-6-(thiazol-2-yloxy)benzo[d]isoxazol-3-yl)benzenesulfonamide]

IC50 (KAT6A): < 10 nM
efflux ratio at 2 h, 2 μM [1]: 1.76
Papp A→B at 2 h, 2 μM [1]: 9.38 ×10⁻⁶ cm/s
Structure (SMILES): COc1ccccc1S(=O)(=O)Nc1noc2cc(Oc3nccs3)c3c(c12)OCCC3 [Compound 61, 2-methoxy-N-(5-(thiazol-2-yloxy)-3,4-dihydro-2H-chromeno[8,7-d]isoxazol-9-yl)benzenesulfonamide]

IC50 (KAT6A): < 10 nM
efflux ratio at 2 h, 2 μM [1]: 3.16
Papp A→B at 2 h, 2 μM [1]: 10.6 ×10⁻⁶ cm/s
Structure (SMILES): COc1cccc(OC)c1S(=O)(=O)Nc1noc2cc(Oc3nccs3)c3c(c12)OCCCC3 [Compound 62, 2,6-dimethoxy-N-(6-(thiazol-2-yloxy)-2,3,4,5,9,10-hexahydrooxepino[3′,2′:5,6]benzo[1,2-d]isoxazol-10-yl)benzenesulfonamide]

IC50 (KAT6A): < 10 nM
Structure (SMILES): COc1cccc(OC)c1S(=O)(=O)Nc1noc2cc(Cc3nccs3)cc(OCF)c12 [Compound 65, N-(4-(fluoromethoxy)-6-(thiazol-2-ylmethyl)benzo[d]isoxazol-3-yl)-2,6-dimethoxybenzenesulfonamide]

IC50 (KAT6A): < 10 nM
Structure (SMILES): COc1cc(C)nc(OC)c1S(=O)(=O)Nc1noc2cc(Cn3cccn3)c3c(c12)OCC1CC31 (stereo not drawn) [Compound 69, N-(7-((1H-pyrazol-1-yl)methyl)-5,5a,6,6a-tetrahydrocyclopropa[3,4]chromeno[8,7-d]isoxazol-3-yl)-2,4-dimethoxy-6-methylpyridine-3-sulfonamide]

Papp A→B at 2 h, 2 μM [1]: 0.628 ×10⁻⁶ cm/s
Structure (SMILES): COc1cccc(OC)c1S(=O)(=O)Nc1noc2cc(Cn3cccn3)cc(OC)c12 [PF-9363, reference compound]
